# Values joined by “and” are separate entries in the source; they are usually repeats but may differ in a detail not shown here. Equal values may be shown once. “Also recorded” adds a separate entry of the source.
# How the values were obtained:
# VEGFR2 = VEGFR2 (Homo sapiens, UniProt P35968); experiment: Cellular thermal shift assay (target engagement) in intact HUVECs; assay type: binding; set-up: stabilize the target in intact HUVECs; endogenous in cells; host or cells: primary HUVECs (passages 3-8); conditions: 40 μM, 3 h, 40-49°C
# Protocol: Then we investigate whether YLT192 bind to VEGFR2 in intact HUVECs. If VEGFR2 is bound by YLT192, it will be stabilized by the physical engagement.
# The ability of YLT192 to interact with, and thereby stabilize the target in intact HUVECs, was evaluated as described by Molina et al.[22] with some modifications. Briefly, subconfluent HUVECs were incubated with 40 μM YLT192 or vehicle for 3 h. Then the cells were detached with trypsin and collected in TBS containing complete protease inhibitor cocktail. The cells were divided into 4 aliquots and heated individually at 40, 43, 46, 49°C for 3 minutes. Subsequently, the cell suspensions were freeze-thawed three times using liquid nitrogen. Soluble proteins were separated from the precipitated fraction by centrifugation at 17,000 g for 20 min. The proteins were then detected with immunoblot analysis using the VEGFR2-antibody.
# A875 = experiment: Inhibition of tumor cell growth; assay type: cell-based; conditions: A875, human melanoma; 48 hour treatment; means ± SD, n=3
# Protocol: The proliferative inhibitory ability of YLT192 on tumor cells was investigated. […] Inhibition of cell proliferation is a possible approach for cancer treatment. EdU incorporation assay was performed to investigate the anti-proliferative effects of YLT192 against U251 and HCT116 cells.
# treatment with YLT192. Data are means ± SD, n=3.
# HUVEC = experiment: EdU incorporation assay, VEGF165-stimulated HUVEC; assay type: cell-based, human
# Protocol: The inhibition effect of YLT192 on VEGF165-stimulated HUVEC growth was examined using MTT assay.
# EdU is a thymidine analogue used to label proliferating cells which can incorporate into replication DNA when cells are dividing. Cells growing in 96-well plates were treated with different concentrations of YLT192 for 24 hours, and then assayed with Cell-Light™ EdU DNA Cell Proliferation Kit according to the manufacture's instructions. Each assay was replicated 3 times.
# Supplementary Figure S2. YLT192 inhibited VEGF-stimulated HUVECs proliferation in the EdU incorporation assay. The EdU-positive(red ﬂuorescent staining) cells and Hoechst staining(blue ﬂuorescent staining) cells represented proliferating and total cells, respectively(100×). Quantification was shown on the right panels. Data represent the mean ± SEM of three different experiments. Each experiment was performed in duplicate. *P<0.05, **P<0.01. […]
# mTOR = target: T1, mTOR (Homo sapiens, UniProt P42345); experiment: Radiometric kinase assay (Millipore Kinase Profile Service); assay type: biochemical; conditions: means ± SD, two independent experiments, read-out: inhibition rate at 1 μM (%)
# T1 construct: purchased Millipore (Kinase Profile Service, UK)
# Protocol: (§1) YLT192 was designed and synthesized in the State Key Laboratory of Biotherapy, Sichuan University (Sichuan, China). Its structural formula and synthesis route was shown in Fig. 1A and Supplementary Figure S1, respectively. The kinase inhibitory activity of YLT192 was measured by the use of radiometric assays provided by Kinase Profile Service (Millipore, UK). The effects of YLT192 on kinase activity were detected using the scintillation proximity assay method at an enzymatic level. […] In addition, the inhibitory activity of YLT192 was examined against platelet-derived growth factor receptor (PDGFR)-related kinases because of their structural similarity to the VEGFR2. […] Moreover, excellent selectivity for VEGFR2 was evident compared with a range of unrelated tyrosine and serine/threonine kinases, including fibroblast growth factor receptor 3, polo-like kinase 1, aurora-A, Axl, MET, protein kinase A, c-RAF etc.
# Flt3 = target: T2, Flt3 (Homo sapiens, UniProt P36888); experiment: as above; assay type: biochemical; conditions: means ± SD, two independent experiments
# T2 construct: purchased Millipore (Kinase Profile Service, UK)
# T2 sequence (P36888 27-993): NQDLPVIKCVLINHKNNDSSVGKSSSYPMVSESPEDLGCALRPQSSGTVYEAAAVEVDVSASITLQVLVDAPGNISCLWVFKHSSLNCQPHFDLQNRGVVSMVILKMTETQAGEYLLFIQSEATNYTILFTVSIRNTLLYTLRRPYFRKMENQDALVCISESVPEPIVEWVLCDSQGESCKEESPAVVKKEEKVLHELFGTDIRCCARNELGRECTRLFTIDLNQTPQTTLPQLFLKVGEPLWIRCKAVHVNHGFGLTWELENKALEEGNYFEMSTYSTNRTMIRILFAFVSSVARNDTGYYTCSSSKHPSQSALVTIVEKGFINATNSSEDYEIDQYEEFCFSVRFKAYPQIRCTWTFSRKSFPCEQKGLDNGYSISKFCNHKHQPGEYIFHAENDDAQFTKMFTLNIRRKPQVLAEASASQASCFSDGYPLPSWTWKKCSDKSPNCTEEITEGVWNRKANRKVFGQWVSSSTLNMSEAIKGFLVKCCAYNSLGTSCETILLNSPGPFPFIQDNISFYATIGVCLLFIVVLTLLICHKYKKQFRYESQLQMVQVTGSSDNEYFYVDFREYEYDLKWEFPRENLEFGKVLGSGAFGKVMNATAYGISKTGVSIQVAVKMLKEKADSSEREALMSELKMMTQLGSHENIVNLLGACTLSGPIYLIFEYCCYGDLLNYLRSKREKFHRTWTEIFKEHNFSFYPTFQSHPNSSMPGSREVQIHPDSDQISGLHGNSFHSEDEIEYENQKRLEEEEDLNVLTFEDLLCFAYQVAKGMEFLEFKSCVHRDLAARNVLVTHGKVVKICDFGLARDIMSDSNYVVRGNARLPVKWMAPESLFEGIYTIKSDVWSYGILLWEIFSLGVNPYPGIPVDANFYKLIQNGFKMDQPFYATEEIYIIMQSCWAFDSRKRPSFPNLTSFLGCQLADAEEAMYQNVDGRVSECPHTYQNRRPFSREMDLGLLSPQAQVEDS
# Protocol: as §1
# Fms = target: T3, Fms (Homo sapiens, UniProt P07333); experiment: as above; assay type: biochemical; conditions: means ± SD, two independent experiments, read-out: inhibition rate at 1 μM (%)
# T3 construct: purchased Millipore (Kinase Profile Service, UK)
# T3 sequence (P07333 20-972): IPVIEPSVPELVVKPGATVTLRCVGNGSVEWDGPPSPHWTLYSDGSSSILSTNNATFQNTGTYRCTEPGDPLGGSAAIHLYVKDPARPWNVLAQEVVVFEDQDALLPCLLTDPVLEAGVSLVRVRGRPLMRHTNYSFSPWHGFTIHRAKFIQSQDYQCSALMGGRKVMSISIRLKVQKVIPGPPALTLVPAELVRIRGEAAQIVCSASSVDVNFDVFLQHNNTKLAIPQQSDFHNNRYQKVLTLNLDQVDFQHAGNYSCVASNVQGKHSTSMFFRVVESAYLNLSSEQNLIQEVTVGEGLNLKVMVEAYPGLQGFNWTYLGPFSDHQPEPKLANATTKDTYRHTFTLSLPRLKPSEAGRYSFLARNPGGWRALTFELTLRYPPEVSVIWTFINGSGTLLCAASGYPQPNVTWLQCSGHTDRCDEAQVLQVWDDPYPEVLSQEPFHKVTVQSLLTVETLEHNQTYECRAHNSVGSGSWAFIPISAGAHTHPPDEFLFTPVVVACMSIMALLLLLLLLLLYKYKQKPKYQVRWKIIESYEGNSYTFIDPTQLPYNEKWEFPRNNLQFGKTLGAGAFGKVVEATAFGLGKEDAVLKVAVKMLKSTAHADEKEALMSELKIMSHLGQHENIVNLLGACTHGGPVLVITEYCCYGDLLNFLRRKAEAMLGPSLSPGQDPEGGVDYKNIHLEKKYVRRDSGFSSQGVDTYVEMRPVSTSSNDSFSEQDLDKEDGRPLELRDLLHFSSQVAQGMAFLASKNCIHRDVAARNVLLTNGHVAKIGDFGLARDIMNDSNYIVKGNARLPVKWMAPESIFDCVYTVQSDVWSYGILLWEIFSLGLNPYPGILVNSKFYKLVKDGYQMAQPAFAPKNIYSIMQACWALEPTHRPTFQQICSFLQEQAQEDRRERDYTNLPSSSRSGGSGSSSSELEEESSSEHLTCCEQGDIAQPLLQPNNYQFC
# Protocol: as §1
# Met = target: T4, Met (Homo sapiens, UniProt P08581); experiment: as above; assay type: biochemical; conditions: means ± SD, two independent experiments, read-out: inhibition rate at 1 μM (%)
# T4 construct: purchased Millipore (Kinase Profile Service, UK)
# T4 sequence (P08581 25-1390): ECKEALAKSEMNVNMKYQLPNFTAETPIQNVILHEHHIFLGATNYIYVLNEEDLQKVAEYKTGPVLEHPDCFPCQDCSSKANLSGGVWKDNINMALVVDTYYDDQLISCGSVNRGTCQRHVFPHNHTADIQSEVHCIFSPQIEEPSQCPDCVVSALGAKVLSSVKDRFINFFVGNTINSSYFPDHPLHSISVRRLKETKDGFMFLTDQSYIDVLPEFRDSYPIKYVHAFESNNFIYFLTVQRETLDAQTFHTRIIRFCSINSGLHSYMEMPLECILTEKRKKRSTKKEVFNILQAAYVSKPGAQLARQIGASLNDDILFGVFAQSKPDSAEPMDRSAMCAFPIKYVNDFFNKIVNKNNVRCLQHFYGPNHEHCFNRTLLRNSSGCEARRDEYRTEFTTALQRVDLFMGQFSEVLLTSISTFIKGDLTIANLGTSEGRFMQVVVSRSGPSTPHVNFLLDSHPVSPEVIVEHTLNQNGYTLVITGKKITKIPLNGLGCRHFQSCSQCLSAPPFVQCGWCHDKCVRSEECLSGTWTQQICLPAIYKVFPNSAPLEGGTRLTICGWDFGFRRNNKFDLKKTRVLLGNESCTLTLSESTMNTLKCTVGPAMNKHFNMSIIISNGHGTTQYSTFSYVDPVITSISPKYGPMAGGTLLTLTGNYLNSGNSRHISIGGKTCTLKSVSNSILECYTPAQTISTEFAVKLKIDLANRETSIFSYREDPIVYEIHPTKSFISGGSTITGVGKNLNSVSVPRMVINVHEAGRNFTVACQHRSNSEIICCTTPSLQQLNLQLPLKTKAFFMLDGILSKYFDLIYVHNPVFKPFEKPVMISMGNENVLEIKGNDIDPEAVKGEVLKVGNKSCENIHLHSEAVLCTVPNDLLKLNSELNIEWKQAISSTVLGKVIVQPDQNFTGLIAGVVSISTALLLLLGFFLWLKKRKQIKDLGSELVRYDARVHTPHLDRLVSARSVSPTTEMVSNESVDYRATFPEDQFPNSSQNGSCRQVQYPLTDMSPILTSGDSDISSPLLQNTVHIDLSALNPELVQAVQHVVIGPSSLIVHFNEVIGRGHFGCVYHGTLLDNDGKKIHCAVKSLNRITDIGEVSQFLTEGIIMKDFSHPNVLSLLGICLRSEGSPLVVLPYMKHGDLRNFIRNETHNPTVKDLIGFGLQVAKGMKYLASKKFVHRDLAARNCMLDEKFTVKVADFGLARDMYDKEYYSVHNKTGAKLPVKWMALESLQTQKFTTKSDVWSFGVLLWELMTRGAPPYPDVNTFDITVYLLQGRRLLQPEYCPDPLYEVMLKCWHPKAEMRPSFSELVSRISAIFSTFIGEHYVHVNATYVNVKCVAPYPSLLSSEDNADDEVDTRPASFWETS
# Protocol: as §1
# FGFR3 = target: T5, FGFR3 (Homo sapiens, UniProt P22607); experiment: as above; assay type: biochemical; conditions: means ± SD, two independent experiments, read-out: inhibition rate at 1 μM (%)
# T5 construct: purchased Millipore (Kinase Profile Service, UK)
# Protocol: as §1
# IKKβ = target: T6, IKKβ (Homo sapiens, UniProt O14920); experiment: as above; assay type: biochemical; conditions: means ± SD, two independent experiments, read-out: inhibition rate at 1 μM (%)
# T6 construct: purchased Millipore (Kinase Profile Service, UK)
# T6 sequence (O14920 whole entry): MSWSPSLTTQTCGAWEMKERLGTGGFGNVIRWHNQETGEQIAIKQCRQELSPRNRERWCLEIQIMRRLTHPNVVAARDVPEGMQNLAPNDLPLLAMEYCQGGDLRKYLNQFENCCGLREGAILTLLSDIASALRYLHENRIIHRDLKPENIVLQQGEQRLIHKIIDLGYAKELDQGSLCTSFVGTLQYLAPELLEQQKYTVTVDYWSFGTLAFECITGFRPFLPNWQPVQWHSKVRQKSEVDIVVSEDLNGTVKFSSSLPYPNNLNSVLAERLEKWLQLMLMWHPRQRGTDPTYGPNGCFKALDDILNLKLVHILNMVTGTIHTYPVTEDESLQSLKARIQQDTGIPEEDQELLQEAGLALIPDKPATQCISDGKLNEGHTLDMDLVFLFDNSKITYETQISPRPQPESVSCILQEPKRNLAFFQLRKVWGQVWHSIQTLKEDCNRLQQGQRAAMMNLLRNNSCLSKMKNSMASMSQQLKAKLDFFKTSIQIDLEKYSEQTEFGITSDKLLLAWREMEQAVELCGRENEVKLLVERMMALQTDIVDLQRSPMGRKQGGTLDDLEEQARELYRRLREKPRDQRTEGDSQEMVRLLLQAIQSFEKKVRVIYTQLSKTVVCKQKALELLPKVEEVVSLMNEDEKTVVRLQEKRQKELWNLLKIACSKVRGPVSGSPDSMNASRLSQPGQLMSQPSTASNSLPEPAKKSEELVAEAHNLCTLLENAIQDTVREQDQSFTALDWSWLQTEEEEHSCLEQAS
# Protocol: as §1
# cKit = target: T7, cKit (Homo sapiens, UniProt P10721); experiment: as above; assay type: biochemical; conditions: means ± SD, two independent experiments, read-out: inhibition rate at 1 μM (%)
# T7 construct: purchased Millipore (Kinase Profile Service, UK)
# Protocol: as §1
# PI3K = experiment: as above; assay type: biochemical; conditions: means ± SD, two independent experiments
# Protocol: as §1
# JNK3 = target: T8, JNK3 (Homo sapiens, UniProt P53779); experiment: as above; assay type: biochemical; conditions: means ± SD, two independent experiments, read-out: inhibition rate at 1 μM (%)
# T8 construct: purchased Millipore (Kinase Profile Service, UK)
# T8 sequence (P53779 whole entry): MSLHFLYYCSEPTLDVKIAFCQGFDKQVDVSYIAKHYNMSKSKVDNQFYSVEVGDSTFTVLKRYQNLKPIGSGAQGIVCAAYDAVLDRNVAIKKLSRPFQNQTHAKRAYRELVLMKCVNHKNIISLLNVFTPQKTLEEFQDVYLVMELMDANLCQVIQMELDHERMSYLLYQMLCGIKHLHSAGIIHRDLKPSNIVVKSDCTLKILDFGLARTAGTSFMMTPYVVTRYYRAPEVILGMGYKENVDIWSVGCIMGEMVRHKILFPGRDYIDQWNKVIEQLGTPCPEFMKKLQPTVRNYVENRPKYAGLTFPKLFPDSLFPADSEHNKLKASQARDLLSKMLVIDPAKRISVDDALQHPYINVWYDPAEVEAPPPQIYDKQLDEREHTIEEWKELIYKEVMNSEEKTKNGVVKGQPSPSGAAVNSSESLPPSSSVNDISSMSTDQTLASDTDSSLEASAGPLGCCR
# Protocol: as §1
# CDK6/cyclinD3 = target: T9, CDK6/cyclinD3 (Homo sapiens, UniProt Q00534); experiment: as above; assay type: biochemical; conditions: means ± SD, two independent experiments, read-out: inhibition rate at 1 μM (%)
# T9 construct: purchased Millipore (Kinase Profile Service, UK)
# Protocol: as §1
# Plk1 = target: T10, Plk1 (Homo sapiens, UniProt P53350); experiment: as above; assay type: biochemical; conditions: means ± SD, two independent experiments, read-out: inhibition rate at 1 μM (%)
# T10 construct: purchased Millipore (Kinase Profile Service, UK)
# Protocol: as §1
# Ret = target: T11, Ret (Homo sapiens, UniProt P07949); experiment: as above; assay type: biochemical; conditions: means ± SD, two independent experiments, read-out: inhibition rate at 1 μM (%)
# T11 construct: purchased Millipore (Kinase Profile Service, UK)
# Protocol: as §1
# [1] = tested on: zebrafish intersegmental vessels; experiment: Transgenic zebrafish (FLK-1: EGFP) embryonic angiogenesis model; assay type: in vivo; conditions: 5 μM; zebrafish embryos treated 15 hpf, imaged 30 hpf
# Excerpt: To test the anti-angiogenesis effects of YLT192 in vivo, we used a FLK-1 promoter enhanced green fluorescent protein (EGFP) transgenic zebrafish model.
# Figure 3 YLT192 inhibited angiogenesis in vivo. (A) Fluorescent images of 30 hpf zebrafish treated with vehicle or concentrations of YLT192. ISV growth was inhibited by YLT192. One representative experiment of three is shown. Data are means ± SEM (n = 10 per group), *P < 0.05, **P < 0.01. Scale bars represent 100 μm. […] Frozen sections of HCT116 tumors were tested by immunohistochemistry analysis with anti-CD31 antibody. Representative images of the tumor vasculature from vehicle and YLT192 treated mice were shown. The fields were averaged in each tumor, and the averages for each animal were used to give the final mean ± SD (n = 6 mice per group). *P < 0.05, **P < 0.01. Scale bars represent 100 μm. […] Alginate beads containing 5 × 10^4 CT26 cells were implanted s.c. into the backs of mice. Mice were then orally treated with YLT192 or vehicle once daily. Beads were surgically removed 14 days later and FITC-dextran was quantified. […] Data are means ± SD (n = 6 mice per group), *P < 0.05, **P < 0.01. Scale bars represent 500 μm.
# The transgenic zebrafish (FLK-1: EGFP) was used in the experiments. The embryos were grown and maintained as described previously. […]
structure (smiles),measurement,setting,value
CNC(=O)c1cc(Oc2ccc(NC(=O)c3cccc(OC)c3)cc2)ccn1 [YLT192],thermal stabilization of VEGFR2,VEGFR2,efficiently stabilized VEGFR2
same,IC50,A875,14.1 ± 2.1 µM
same,"VEGF165-stimulated HUVEC proliferation, EdU incorporation",HUVEC,inhibited VEGF165-stimulated HUVEC proliferation
same,inhibition at 1 µM,mTOR,0%
same,inhibition rate at 1 μM (%),Flt3,0% and −6 ± 2%
same,inhibition at 1 µM,Fms,35 ± 11%
same,inhibition at 1 µM,Met,-2 ± 6%
same,inhibition at 1 µM,FGFR3,4 ± 6%
same,inhibition at 1 µM,IKKβ,2 ± 6%
same,inhibition at 1 µM,cKit,6 ± 3%
same,inhibition rate at 1 μM (%),PI3K,0 ± 2%
same,inhibition at 1 µM,JNK3,3 ± 5%
same,inhibition at 1 µM,CDK6/cyclinD3,0%
same,inhibition at 1 µM,Plk1,1 ± 3%
same,inhibition at 1 µM,Ret,23 ± 3%
same,formation of intersegmental vessels,[1],considerably blocked; also recorded: significantly inhibited

# From PMC4129416, “YLT192, a Novel, Orally Active Bioavailable Inhibitor of VEGFR2 Signaling with Potent Antiangiogenic Activity and Antitumor Efficacy in Preclinical Models” (Scientific Reports, 2014)
